Values quoted from earlier work in paper PMC12932482 (Frontiers in Pharmacology, 2026).

Details: Obs, +CLA (with clarithromycin); ref Rengelshausen et al. (2003)

## C[C@H]1O[C@@H](O[C@H]2[C@@H](O)C[C@H](O[C@H]3[C@@H](O)C[C@H](O[C@H]4CC[C@@]5(C)[C@H](CC[C@@H]6[C@@H]5C[C@@H](O)[C@]5(C)[C@@H](C7=CC(=O)OC7)CC[C@]65O)C4)O[C@@H]3C)O[C@@H]2C)C[C@H](O)[C@@H]1O [digoxin]
  AUC0–3h: 11 ng·h/mL
